Measured values as given in publication PMC5421785, “Citrullination only infrequently impacts peptide binding to HLA class II MHC” (PLoS ONE, 2017).
Read-outs that look alike come from different tables or passages of the source. Square brackets hold non-standard residues; d marks the D form. Peptide text beside a SMILES is read from it. Cit = NC(=O)NCCC[C@H](N)C(=O)O

Experiments:
[1] = biological target: T1, HLA-DRB1*01:01 (Homo sapiens, UniProt P01903+P01911, A100R/D57E/F55L/F60I/F76Y/I96L/L162R/M171V/P40L/Q125E/R42F/V115G/Y59C); test: HLA class II peptide binding, inhibition of radiolabeled peptide binding to purified MHC; conditions: read-out: DRB1*01:01 binding capacity, Cit peptide (IC50 nM)
T1 construct: EBV transformed homozygous cell lines were used as sources of MHC molecules; endogenous in cells; host or cells: EBV transformed homozygous cell lines

[2] = biological target: T2, HLA-DRB1*04:01 (Homo sapiens, UniProt P01903+P01911, A100K/A169T/F76Y/I96L/K127E/L162R/M171V/N62H/P40V/Q125Y/R42H/S133A/S149N/S66Y/V115G/V209L/W38E); test: as above; conditions: read-out: DRB1*04:01 binding capacity, Cit peptide (IC50 nM)
T2 construct: EBV transformed homozygous cell lines were used as sources of MHC molecules; endogenous in cells; host or cells: EBV transformed homozygous cell lines

[3] = citrullinated 15-mer (X), purified MHC, inhibition of radiolabeled peptide binding, dash = IC50 >40,000 nM
[4] = citrullinated 15-mer peptide (X = citrulline), purified HLA-DRB1*01:01
[5] = citrullinated 15-mer peptide (X = citrulline), purified HLA-DRB1*04:01

CC[C@H](C)[C@H](NC(=O)[C@@H](N)CC(=O)O)C(=O)N[C@@H](CCSC)C(=O)N[C@@H](CCCNC(=N)N)C(=O)N[C@@H](CC(C)C)C(=O)N[C@@H](CCCNC(N)=O)C(=O)N[C@@H](CCC(=O)O)C(=O)N[C@@H](CCCCN)C(=O)N[C@@H](CC(C)C)C(=O)N[C@@H](CCC(N)=O)C(=O)N[C@@H](CCC(=O)O)C(=O)N[C@@H](CCC(=O)O)C(=O)N[C@@H](CCSC)C(=O)N[C@@H](CC(C)C)C(=O)N[C@@H](CCC(N)=O)C(=O)O [DIMRLXEKLQEEMLQ] (H-DIMRL[Cit]EKLQEEMLQ-OH)
IC50 [1, 3]: 729 nM
IC50 [2, 3]: > 40000 nM

CC[C@H](C)[C@H](NC(=O)[C@@H](N)CC(=O)O)C(=O)N[C@@H](CCSC)C(=O)N[C@@H](CCCNC(N)=O)C(=O)N[C@@H](CC(C)C)C(=O)N[C@@H](CCCNC(=N)N)C(=O)N[C@@H](CCC(=O)O)C(=O)N[C@@H](CCCCN)C(=O)N[C@@H](CC(C)C)C(=O)N[C@@H](CCC(N)=O)C(=O)N[C@@H](CCC(=O)O)C(=O)N[C@@H](CCC(=O)O)C(=O)N[C@@H](CCSC)C(=O)N[C@@H](CC(C)C)C(=O)N[C@@H](CCC(N)=O)C(=O)O [DIMXLREKLQEEMLQ] (H-DIM[Cit]LREKLQEEMLQ-OH)
IC50 [1, 3]: 983 nM
IC50 [2, 3]: > 40000 nM

CC(C)C[C@H](NC(=O)[C@H](CO)NC(=O)[C@H](C)NC(=O)[C@H](CC(N)=O)NC(=O)[C@@H](N)CC(=O)O)C(=O)N[C@@H](C)C(=O)N[C@@H](CCCNC(=N)N)C(=O)N[C@@H](CC(C)C)C(=O)N[C@@H](CC(=O)O)C(=O)N[C@@H](CC(C)C)C(=O)N[C@@H](CCC(=O)O)C(=O)N[C@@H](CCCNC(N)=O)C(=O)N[C@@H](CCCCN)C(=O)N[C@H](C(=O)N[C@@H](CCC(=O)O)C(=O)O)C(C)C [DNASLARLDLEXKVE] (H-DNASLARLDLE[Cit]KVE-OH)
IC50 [1, 3]: 10900 nM
IC50 [2, 3]: > 40000 nM

CC(C)C[C@H](NC(=O)[C@H](CO)NC(=O)[C@H](C)NC(=O)[C@H](CC(N)=O)NC(=O)[C@@H](N)CC(=O)O)C(=O)N[C@@H](C)C(=O)N[C@@H](CCCNC(N)=O)C(=O)N[C@@H](CC(C)C)C(=O)N[C@@H](CC(=O)O)C(=O)N[C@@H](CC(C)C)C(=O)N[C@@H](CCC(=O)O)C(=O)N[C@@H](CCCNC(=N)N)C(=O)N[C@@H](CCCCN)C(=O)N[C@H](C(=O)N[C@@H](CCC(=O)O)C(=O)O)C(C)C [DNASLAXLDLERKVE] (H-DNASLA[Cit]LDLERKVE-OH)
IC50 [1, 3]: 16300 nM
IC50 [2, 3]: > 40000 nM

CC[C@H](C)[C@H](NC(=O)[C@H](CC(=O)O)NC(=O)[C@H](CCC(=O)O)NC(=O)[C@H](C)NC(=O)[C@H](CC(C)C)NC(=O)[C@H](CC(N)=O)NC(=O)[C@@H](N)CC(=O)O)C(=O)N[C@@H](CCSC)C(=O)N[C@@H](CCCNC(=N)N)C(=O)N[C@@H](CC(C)C)C(=O)N[C@@H](CCCNC(N)=O)C(=O)N[C@@H](CCC(=O)O)C(=O)N[C@@H](CCCCN)C(=O)N[C@@H](CC(C)C)C(=O)N[C@@H](CCC(N)=O)C(=O)O [DNLAEDIMRLXEKLQ] (H-DNLAEDIMRL[Cit]EKLQ-OH)
IC50 [1, 3]: 1610 nM
IC50 [2, 3]: > 40000 nM

CC[C@H](C)[C@H](NC(=O)[C@H](CC(=O)O)NC(=O)[C@H](CCC(=O)O)NC(=O)[C@H](C)NC(=O)[C@H](CC(C)C)NC(=O)[C@H](CC(N)=O)NC(=O)[C@@H](N)CC(=O)O)C(=O)N[C@@H](CCSC)C(=O)N[C@@H](CCCNC(N)=O)C(=O)N[C@@H](CC(C)C)C(=O)N[C@@H](CCCNC(=N)N)C(=O)N[C@@H](CCC(=O)O)C(=O)N[C@@H](CCCCN)C(=O)N[C@@H](CC(C)C)C(=O)N[C@@H](CCC(N)=O)C(=O)O [DNLAEDIMXLREKLQ] (H-DNLAEDIM[Cit]LREKLQ-OH)
IC50 [1, 3]: 4690 nM
IC50 [2, 3]: > 40000 nM

CC(C)C[C@H](NC(=O)[C@H](CC(N)=O)NC(=O)[C@H](CCCCN)NC(=O)[C@H](C)NC(=O)[C@H](C)NC(=O)[C@@H](NC(=O)[C@H](CO)NC(=O)[C@H](CCC(=O)O)NC(=O)[C@H](Cc1ccc(O)cc1)NC(=O)[C@H](CCC(N)=O)NC(=O)[C@H](CCC(N)=O)NC(=O)[C@H](CCCNC(N)=O)NC(=O)[C@@H](NC(=O)[C@@H](N)CC(=O)O)C(C)C)C(C)C)C(=O)N[C@@H](CCC(N)=O)C(=O)O [DVXQQYESVAAKNLQ] (H-DV[Cit]QQYESVAAKNLQ-OH)
IC50 [1, 3]: 19 nM
IC50 [2, 3]: 7760 nM

CC(C)[C@H](NC(=O)[C@H](CC(=O)O)NC(=O)CNC(=O)[C@H](CCCNC(N)=O)NC(=O)[C@@H](N)CC(=O)O)C(=O)NCC(=O)N[C@@H](CCC(=O)O)C(=O)N[C@@H](CCCCN)C(=O)NCC(=O)N1CCC[C@H]1C(=O)N[C@@H](CCC(=O)O)C(=O)NCC(=O)N[C@@H](C)C(=O)N1CCC[C@H]1C(=O)NCC(=O)O [DXGDVGEKGPEGAPG] (H-D[Cit]GDVGEKGPEGAPG-OH)
IC50 [1, 4]: 2270 nM
IC50 [2, 5]: 33300 nM

CSCC[C@H](NC(=O)[C@H](CCC(=O)O)NC(=O)[C@H](CCC(=O)O)NC(=O)[C@@H](N)CCC(=O)O)C(=O)N[C@@H](CCCNC(=N)N)C(=O)N[C@@H](CCC(=O)O)C(=O)N[C@@H](CC(C)C)C(=O)N[C@@H](CCCNC(=N)N)C(=O)N[C@@H](CCCNC(N)=O)C(=O)N[C@@H](CCC(N)=O)C(=O)N[C@H](C(=O)N[C@@H](CC(=O)O)C(=O)N[C@@H](CCC(N)=O)C(=O)N[C@@H](CC(C)C)C(=O)N[C@H](C(=O)O)[C@@H](C)O)C(C)C [EEEMRELRXQVDQLT] (H-EEEMRELR[Cit]QVDQLT-OH)
IC50 [1, 3]: 686 nM
IC50 [2, 3]: 1280 nM

CSCC[C@H](NC(=O)[C@H](CCC(=O)O)NC(=O)[C@H](CCC(=O)O)NC(=O)[C@@H](N)CCC(=O)O)C(=O)N[C@@H](CCCNC(=N)N)C(=O)N[C@@H](CCC(=O)O)C(=O)N[C@@H](CC(C)C)C(=O)N[C@@H](CCCNC(N)=O)C(=O)N[C@@H](CCCNC(=N)N)C(=O)N[C@@H](CCC(N)=O)C(=O)N[C@H](C(=O)N[C@@H](CC(=O)O)C(=O)N[C@@H](CCC(N)=O)C(=O)N[C@@H](CC(C)C)C(=O)N[C@H](C(=O)O)[C@@H](C)O)C(C)C [EEEMRELXRQVDQLT] (H-EEEMREL[Cit]RQVDQLT-OH)
IC50 [1, 3]: 1490 nM
IC50 [2, 3]: 4740 nM

CSCC[C@H](NC(=O)[C@H](CCC(=O)O)NC(=O)[C@H](CCC(=O)O)NC(=O)[C@@H](N)CCC(=O)O)C(=O)N[C@@H](CCCNC(N)=O)C(=O)N[C@@H](CCC(=O)O)C(=O)N[C@@H](CC(C)C)C(=O)N[C@@H](CCCNC(=N)N)C(=O)N[C@@H](CCCNC(=N)N)C(=O)N[C@@H](CCC(N)=O)C(=O)N[C@H](C(=O)N[C@@H](CC(=O)O)C(=O)N[C@@H](CCC(N)=O)C(=O)N[C@@H](CC(C)C)C(=O)N[C@H](C(=O)O)[C@@H](C)O)C(C)C [EEEMXELRRQVDQLT] (H-EEEM[Cit]ELRRQVDQLT-OH)
IC50 [1, 3]: 1250 nM
IC50 [2, 3]: 6570 nM

CSCC[C@H](NC(=O)[C@H](CCC(=O)O)NC(=O)[C@@H](N)CCC(=O)O)C(=O)N[C@@H](CC(C)C)C(=O)N[C@@H](CCC(N)=O)C(=O)N[C@@H](CCCNC(N)=O)C(=O)N[C@@H](CCC(=O)O)C(=O)N[C@@H](CCC(=O)O)C(=O)N[C@@H](C)C(=O)N[C@@H](CCC(=O)O)C(=O)N[C@@H](CC(N)=O)C(=O)N[C@H](C(=O)N[C@@H](CC(C)C)C(=O)N[C@@H](CCC(N)=O)C(=O)N[C@@H](CO)C(=O)O)[C@@H](C)O [EEMLQXEEAENTLQS] (H-EEMLQ[Cit]EEAENTLQS-OH)
IC50 [1, 3]: 869 nM
IC50 [2, 3]: 14000 nM

CC[C@H](C)[C@H](NC(=O)[C@@H](N)CCC(=O)O)C(=O)N[C@@H](C)C(=O)N[C@H](C(=O)N[C@@H](Cc1ccc(O)cc1)C(=O)N[C@@H](CCCNC(=N)N)C(=O)N[C@@H](CCCCN)C(=O)N[C@@H](CC(C)C)C(=O)N[C@@H](CC(C)C)C(=O)N[C@@H](CCC(=O)O)C(=O)NCC(=O)N[C@@H](CCC(=O)O)C(=O)N[C@@H](CCC(=O)O)C(=O)N[C@@H](CO)C(=O)N[C@@H](CCCNC(N)=O)C(=O)O)[C@@H](C)O [EIATYRKLLEGEESX] (H-EIATYRKLLEGEES[Cit]-OH)
IC50 [1, 4]: 470 nM
IC50 [2, 5]: 4300 nM

CC[C@H](C)[C@H](NC(=O)[C@@H](N)CCC(=O)O)C(=O)N[C@@H](C)C(=O)N[C@H](C(=O)N[C@@H](Cc1ccc(O)cc1)C(=O)N[C@@H](CCCNC(N)=O)C(=O)N[C@@H](CCCCN)C(=O)N[C@@H](CC(C)C)C(=O)N[C@@H](CC(C)C)C(=O)N[C@@H](CCC(=O)O)C(=O)NCC(=O)N[C@@H](CCC(=O)O)C(=O)N[C@@H](CCC(=O)O)C(=O)N[C@@H](CO)C(=O)N[C@@H](CCCNC(=N)N)C(=O)O)[C@@H](C)O [EIATYXKLLEGEESR] (H-EIATY[Cit]KLLEGEESR-OH)
IC50 [1, 4]: 360 nM
IC50 [2, 5]: 3810 nM

CC[C@H](C)[C@H](NC(=O)[C@H](Cc1ccc(O)cc1)NC(=O)[C@H](CC(N)=O)NC(=O)[C@H](C)NC(=O)[C@H](Cc1ccccc1)NC(=O)[C@H](CCCNC(N)=O)NC(=O)[C@H](CC(=O)O)NC(=O)[C@H](CC(N)=O)NC(=O)[C@H](CC(C)C)NC(=O)[C@H](CCC(=O)O)NC(=O)[C@H](CCC(N)=O)NC(=O)[C@H](CC(C)C)NC(=O)[C@@H](N)CCC(=O)O)C(=O)N[C@@H](CC(=O)O)C(=O)N[C@@H](CCCCN)C(=O)O [ELQELNDXFANYIDK]
IC50 [1, 3]: 295 nM
IC50 [2, 3]: 26700 nM

CC(C)C[C@H](NC(=O)[C@H](CCC(N)=O)NC(=O)[C@H](CC(=O)O)NC(=O)[C@@H](NC(=O)[C@H](CCC(N)=O)NC(=O)[C@H](CCCNC(=N)N)NC(=O)[C@H](CCCNC(=N)N)NC(=O)[C@H](CC(C)C)NC(=O)[C@@H](N)CCC(=O)O)C(C)C)C(=O)N[C@H](C(=O)N[C@@H](CC(N)=O)C(=O)N[C@@H](CC(=O)O)C(=O)N[C@@H](CCCCN)C(=O)N[C@@H](C)C(=O)N[C@@H](CCCNC(N)=O)C(=O)O)[C@@H](C)O [ELRRQVDQLTNDKAX] (H-ELRRQVDQLTNDKA[Cit]-OH)
IC50 [1, 3]: 1160 nM
IC50 [2, 3]: 8090 nM
